Measured values: ChEMBL document CHEMBL1150994, “The chemical synthesis of large random peptide libraries and their use for the discovery of ligands for macromolecular acceptors” (Bioorg Med Chem Lett, 1993)
Calls of active or inactive are those of the source. No cut-off for these calls is given here. Where a SMILES comes first, the peptide text is derived from it. [ ]: non-standard residue; d: D form. βAla = NCCC(=O)O

system: Monoclonal antibody (mAb) 3E7; test: Affinity towards anti-beta-endorphin MAb(Clone 3-E7) using [3H][Leu5]-enkephalin as labeled ligand at 10 uM concentration; not active

Row | SMILES | Activity
1 | N[C@@H](Cc1ccc(O)cc1)C(=O)NCC(=O)N1CCC[C@H]1C(=O)NCC(=O)N[C@@H](Cc1ccccc1)C(=O)O (H-YGPGF-OH) | inactive
2 | CSCC[C@H](N)C(=O)N[C@@H](Cc1ccc(O)cc1)C(=O)NCC(=O)NCC(=O)N[C@@H](Cc1ccccc1)C(=O)O (H-MYGGF-OH) | inactive
3 | CC(C)[C@H](NC(=O)CNC(=O)[C@@H](N)Cc1ccc(O)cc1)C(=O)N[C@@H](Cc1ccccc1)C(=O)N[C@@H](CCC(=O)O)C(=O)O (H-YGVFE-OH) | inactive
4 | CC(C)C[C@H](NC(=O)CNC(=O)[C@@H](N)Cc1ccc(O)cc1)C(=O)NCC(=O)N[C@@H](Cc1ccccc1)C(=O)O (H-YGLGF-OH) | inactive
5 | NC(=O)CC[C@H](NC(=O)[C@H](Cc1ccccc1)NC(=O)[C@H](Cc1c[nH]c2ccccc12)NC(=O)CNC(=O)[C@@H](N)Cc1ccc(O)cc1)C(=O)O (H-YGWFQ-OH) | inactive
6 | CC[C@H](C)[C@H](NC(=O)[C@H](Cc1ccccc1)NC(=O)CNC(=O)CNC(=O)[C@@H](N)Cc1ccc(O)cc1)C(=O)O (H-YGGFI-OH) | inactive
7 | CC(C)C[C@H](NC(=O)[C@H](CC(C)C)NC(=O)CNC(=O)[C@H](Cc1ccc(O)cc1)NC(=O)[C@@H](N)CCCN=C(N)N)C(=O)O (H-RYGLL-OH) | inactive
8 | C[C@H](NC(=O)CNC(=O)[C@@H](N)Cc1ccc(O)cc1)C(=O)N[C@@H](Cc1ccccc1)C(=O)N[C@@H](Cc1ccccc1)C(=O)O (H-YGAFF-OH) | inactive
9 | NC(=O)CC[C@H](NC(=O)[C@H](Cc1ccccc1)NC(=O)[C@H](Cc1ccccc1)NC(=O)CNC(=O)[C@@H](N)Cc1ccc(O)cc1)C(=O)O (H-YGFFQ-OH) | inactive
10 | C[C@H](NC(=O)CNC(=O)[C@@H](N)Cc1ccc(O)cc1)C(=O)N[C@@H](Cc1ccccc1)C(=O)N[C@H](C(=O)O)[C@@H](C)O (H-YGAFT-OH) | inactive
11 | N[C@@H](Cc1ccc(O)cc1)C(=O)NCC(=O)N[C@@H](Cc1ccc(O)cc1)C(=O)N[C@@H](Cc1ccccc1)C(=O)N[C@@H](Cc1ccccc1)C(=O)O (H-YGYFF-OH) | inactive
12 | CSCC[C@H](NC(=O)[C@H](Cc1c[nH]c2ccccc12)NC(=O)[C@H](Cc1c[nH]c2ccccc12)NC(=O)CNC(=O)[C@@H](N)Cc1ccc(O)cc1)C(=O)O (H-YGWWM-OH) | inactive
13 | CC(C)[C@H](NC(=O)CNC(=O)[C@@H](N)Cc1ccc(O)cc1)C(=O)N[C@@H](Cc1ccccc1)C(=O)N[C@@H](C)C(=O)O (H-YGVFA-OH) | inactive
14 | CC[C@H](C)[C@H](NC(=O)[C@H](Cc1ccccc1)NC(=O)[C@H](C)NC(=O)CNC(=O)[C@@H](N)Cc1ccc(O)cc1)C(=O)O (H-YGAFI-OH) | inactive
15 | C[C@H](NC(=O)CNC(=O)[C@@H](N)Cc1ccc(O)cc1)C(=O)N[C@@H](Cc1c[nH]c2ccccc12)C(=O)N[C@@H](CC(=O)O)C(=O)O (H-YGAWD-OH) | inactive
16 | NC(=O)CC[C@H](NC(=O)[C@H](Cc1c[nH]c2ccccc12)NC(=O)[C@H](Cc1ccc(O)cc1)NC(=O)CNC(=O)[C@@H](N)Cc1ccc(O)cc1)C(=O)O (H-YGYWQ-OH) | inactive
17 | C[C@H](NC(=O)[C@H](Cc1c[nH]cn1)NC(=O)CNC(=O)[C@@H](N)Cc1ccc(O)cc1)C(=O)N[C@@H](Cc1ccccc1)C(=O)O (H-YGHAF-OH) | inactive
18 | NC(=O)C[C@H](NC(=O)[C@H](Cc1ccccc1)NC(=O)[C@H](Cc1c[nH]c2ccccc12)NC(=O)CNC(=O)[C@@H](N)Cc1ccc(O)cc1)C(=O)O (H-YGWFN-OH) | inactive

Row | SMILES | Activity
19 | CC(C)[C@H](NC(=O)CNC(=O)[C@@H](N)Cc1ccc(O)cc1)C(=O)N[C@@H](Cc1ccccc1)C(=O)N[C@@H](CCC(N)=O)C(=O)O (H-YGVFQ-OH) | inactive
20 | CC[C@H](C)[C@H](NC(=O)[C@H](Cc1ccccc1)NC(=O)[C@@H](NC(=O)CNC(=O)[C@@H](N)Cc1ccc(O)cc1)C(C)C)C(=O)O (H-YGVFI-OH) | inactive
21 | NC(=O)CC[C@H](NC(=O)[C@H](Cc1ccccc1)NC(=O)CNC(=O)CNC(=O)[C@@H](N)Cc1ccc(O)cc1)C(=O)O (H-YGGFQ-OH) | inactive
22 | CC(C)C[C@H](NC(=O)[C@H](C)NC(=O)CNC(=O)[C@@H](N)Cc1ccc(O)cc1)C(=O)N[C@H](C(=O)O)[C@@H](C)O (H-YGALT-OH) | inactive
23 | C[C@H](NC(=O)CNC(=O)[C@@H](N)Cc1ccc(O)cc1)C(=O)N[C@@H](Cc1ccccc1)C(=O)N[C@@H](CCC(N)=O)C(=O)O (H-YGAFQ-OH) | inactive
24 | CSCC[C@H](NC(=O)CNC(=O)[C@@H](N)Cc1ccc(O)cc1)C(=O)NCC(=O)N[C@@H](Cc1ccccc1)C(=O)O (H-YGMGF-OH) | inactive
25 | CC(C)C[C@H](NC(=O)[C@H](Cc1ccccc1)NC(=O)CNC(=O)CNC(=O)[C@@H](N)Cc1ccc(O)cc1)C(=O)O [ENKEPHALIN] | inactive
26 | CC(C)[C@H](NC(=O)[C@H](Cc1ccccc1)NC(=O)[C@H](CCC(N)=O)NC(=O)CNC(=O)[C@@H](N)Cc1ccc(O)cc1)C(=O)O (H-YGQFV-OH) | inactive
27 | NC(=O)CC[C@H](NC(=O)[C@@H](N)Cc1ccc(O)cc1)C(=O)NCC(=O)NCC(=O)N[C@@H](Cc1ccccc1)C(=O)O (H-YQGGF-OH) | inactive
28 | CC(C)C[C@H](NC(=O)[C@@H](N)Cc1ccc(O)cc1)C(=O)NCC(=O)NCC(=O)N[C@@H](Cc1ccccc1)C(=O)O (H-YLGGF-OH) | inactive
29 | NC(=O)C[C@H](NC(=O)CNC(=O)[C@@H](N)Cc1ccc(O)cc1)C(=O)N[C@@H](Cc1ccccc1)C(=O)N[C@@H](Cc1ccccc1)C(=O)O (H-YGNFF-OH) | inactive
30 | NCCCC[C@H](NC(=O)[C@@H](N)Cc1ccc(O)cc1)C(=O)NCC(=O)NCC(=O)N[C@@H](Cc1ccccc1)C(=O)O (H-YKGGF-OH) | inactive
31 | N[C@@H](Cc1ccc(O)cc1)C(=O)NCC(=O)N[C@@H](Cc1c[nH]c2ccccc12)C(=O)N[C@@H](Cc1ccccc1)C(=O)N[C@@H](Cc1c[nH]cn1)C(=O)O (H-YGWFH-OH) | inactive
32 | CC(C)C[C@H](N)C(=O)N[C@@H](Cc1ccc(O)cc1)C(=O)NCC(=O)NCC(=O)N[C@@H](Cc1ccccc1)C(=O)O (H-LYGGF-OH) | inactive
33 | NC(=O)C[C@H](N)C(=O)N[C@@H](Cc1ccc(O)cc1)C(=O)NCC(=O)NCC(=O)N[C@@H](Cc1ccccc1)C(=O)O (H-NYGGF-OH) | inactive
34 | CSCC[C@H](NC(=O)[C@H](Cc1ccccc1)NC(=O)[C@H](C)NC(=O)CNC(=O)[C@@H](N)Cc1ccc(O)cc1)C(=O)O (H-YGAFM-OH) | inactive
35 | C[C@H](NC(=O)[C@H](CCC(=O)O)NC(=O)CNC(=O)[C@@H](N)Cc1ccc(O)cc1)C(=O)N[C@@H](Cc1ccccc1)C(=O)O (H-YGEAF-OH) | inactive
36 | N[C@@H](Cc1ccc(O)cc1)C(=O)NCC(=O)NCC(=O)NCC(=O)N[C@@H](Cc1ccccc1)C(=O)O (H-YGGGF-OH) | inactive

system: Monoclonal antibody (mAb) 3E7; test: Affinity towards anti-beta-endorphin MAb(Clone 3-E7) using [3H][Leu5]-enkephalin as labeled ligand

Row | SMILES | IC50 [µM]
37 | NC(=O)CC[C@H](NC(=O)[C@H](Cc1ccccc1)NC(=O)CNC(=O)CNC(=O)[C@@H](N)Cc1ccccc1)C(=O)O (H-FGGFQ-OH) | 0.015
38 | C[C@@H](O)[C@H](NC(=O)[C@H](Cc1ccccc1)NC(=O)CNC(=O)CNC(=O)[C@@H](N)Cc1ccc(O)cc1)C(=O)NCCC(=O)O (H-YGGFT[βAla]-OH) | 0.0506
39 | C[C@H](NC(=O)[C@H](Cc1ccccc1)NC(=O)CNC(=O)CNC(=O)[C@@H](N)Cc1ccc(O)cc1)C(N)=O (H-YGGFA-NH2) | 0.072
40 | NC(=O)CC[C@H](NC(=O)[C@H](Cc1ccccc1)NC(=O)CNC(=O)CNC(=O)[C@@H](N)Cc1ccccc1)C(=O)NCCC(=O)O (H-FGGFQ[βAla]-OH) | 0.0394
41 | CC(C)C[C@H](NC(=O)CNC(=O)CNC(=O)[C@@H](N)Cc1ccc(O)cc1)C(=O)N[C@@H](CO)C(=O)NCCC(=O)O (H-YGGLS[βAla]-OH) | 0.916
42 | CSCC[C@H](NC(=O)CNC(=O)CNC(=O)[C@@H](N)Cc1ccc(O)cc1)C(=O)N[C@H](C(N)=O)C(C)C (H-YGGMV-NH2) | 14
43 | NC(=O)CCNC(=O)[C@H](CCC(N)=O)NC(=O)[C@H](Cc1ccccc1)NC(=O)CNC(=O)CNC(=O)[C@@H](N)Cc1ccccc1 (H-FGGFQ[βAla]-NH2) | 0.0454
44 | C[C@@H](O)[C@H](NC(=O)[C@H](Cc1ccccc1)NC(=O)CNC(=O)CNC(=O)[C@@H](N)Cc1ccc(O)cc1)C(N)=O (H-YGGFT-NH2) | 0.0652
45 | CC(C)C[C@H](NC(=O)[C@H](C)NC(=O)CNC(=O)[C@@H](N)Cc1ccc(O)cc1)C(=O)N[C@@H](CCC(N)=O)C(N)=O (H-YGALQ-NH2) | 2.91
46 | CC(C)C[C@H](NC(=O)[C@H](Cc1ccccc1)NC(=O)CNC(=O)CNC(=O)[C@@H](N)Cc1ccc(O)cc1)C(=O)N[C@@H](C)C(=O)O (H-YGGFLA-OH) | 0.0171
47 | CC(C)C[C@H](NC(=O)CNC(=O)CNC(=O)[C@@H](N)Cc1ccc(O)cc1)C(=O)N[C@@H](CO)C(N)=O (H-YGGLS-NH2) | 0.991
48 | CC(C)C[C@H](NC(=O)[C@H](Cc1ccccc1)NC(=O)CNC(=O)CNC(=O)[C@@H](N)Cc1ccc(O)cc1)C(=O)N[C@@H](C)C(N)=O (H-YGGFLA-NH2) | 0.0137
49 | CC(C)C[C@H](NC(=O)[C@H](Cc1ccccc1)NC(=O)CNC(=O)CNC(=O)[C@@H](N)Cc1ccc(O)cc1)C(N)=O [[LEU5]ENKEPHALIN] | 0.0273
50 | NC(=O)CC[C@H](NC(=O)[C@H](Cc1ccccc1)NC(=O)CNC(=O)CNC(=O)[C@@H](N)Cc1ccccc1)C(N)=O (H-FGGFQ-NH2) | 0.0401
51 | CC(C)C[C@H](NC(=O)[C@H](C)NC(=O)CNC(=O)[C@@H](N)Cc1ccc(O)cc1)C(=O)N[C@@H](CCC(N)=O)C(=O)NCCC(=O)O (H-YGALQ[βAla]-OH) | 1.47
52 | CSCC[C@H](NC(=O)CNC(=O)CNC(=O)[C@@H](N)Cc1ccc(O)cc1)C(=O)N[C@H](C(=O)NCCC(N)=O)C(C)C (H-YGGMV[βAla]-NH2) | 7.16
53 | CC(C)C[C@H](NC(=O)[C@H](C)NC(=O)CNC(=O)[C@@H](N)Cc1ccc(O)cc1)C(=O)N[C@@H](CCC(N)=O)C(=O)NCCC(N)=O (H-YGALQ[βAla]-NH2) | 2.87
54 | C[C@H](NC(=O)[C@H](Cc1ccccc1)NC(=O)CNC(=O)CNC(=O)[C@@H](N)Cc1ccc(O)cc1)C(=O)NCCC(N)=O (H-YGGFA[βAla]-NH2) | 0.0936
